Source: US9877957B2, “Tetrahydroisoquinoline derivatives useful as inhibitors of diacylglyceride O-acyltransferase 2” (Merck Sharp & Dohme Corp., priority 2014, dated 2018)

Target: hDGAT2 (Homo sapiens (Human), UniProt Q96PD7)
Test: DGAT2 Enzymatic Activity Assay (triolein formation, LC/MS/MS)
Assay type: biochemical
Settings: Sf-9 membrane prep expressing hDGAT2; 25 μM diolein, 10 μM oleoyl-CoA; room temperature; read-out: IC50 values for inhibition of DGAT2
Description: In Vitro DGAT2 ASSAYS and Determination of IC50 Values for DGAT2 Inhibitors
Insect Cell Expression and Membrane Preparation
Sf-9 insect cells were maintained in Grace's insect cell culture medium with 10% heated-inactivated fetal bovine serum, 1% Pluronic F-68 and 0.14 μg/ml Kanamycine sulfate in Erlenmeyer flasks at 28° C. in a shaker incubator. After infection with untagged hDGAT2 baculovirus at multiplicity of infection (MOI) 0.1 for 48 hours, cells were harvested. Cell pellets were suspended in buffer containing 10 mM Tris-HCl (pH 7.5), 1 mM EDTA (pH 8.0), 250 mM sucrose and Complete Protease Inhibitor Cocktail (Roche Diagnostics Corp., Indianapolis, Ill.), and sonicated on ice. Membrane fractions were isolated by ultracentrifugation (100,000× g pellet), resuspended in the same buffer, and frozen (−80° C.) for later use. The protein concentration was determined with the BCA Protein Assay kit (Pierce Biotechnology Inc., Rockford, Ill.). Expression of protein levels was analyzed by immunoblotting with goat polyclonal DGAT2 antibody C-15 and donkey anti-goat IgG HRP (Santa Cruz Biotechnology, Inc., Santa Cruz, Calif.) followed by detection with ECL reagent (GE Healthcare, Piscataway, N.J.).
LC/MS/MS analyses were performed using Thermal Fisher's LX4-TSQ Vantage system. This system consists of an Agilent binary high-performance liquid chromatography (HPLC) pumps and a TSQ Vantage triple quadrupole MS/MS instrument. For each sample, 2 μL samples from the top organic layer of in-plate liquid-liquid extraction were injected onto a Thermo Betabasic C4 column (2.1 mm×20 mm, 5 μm particle size). The samples were then eluted using the following conditions; mobile phase: methanol/water with 0.1% ammonium format=92/8 (v/v), flow rate: 1 mL/min, temperature: 25° C. Data was acquired in positive mode using a heated electrospray ionization (HESI) interface. The operational parameters for the TSQ Vantage MS/MS instrument were a spray voltage of 3000 V, capillary temperature of 280° C., vaporizer temperature 400° C., shealth gas 60 arbitrary unit, Aux gas 40 arbitrary units, S-lens 113 and collision gas 0.16 Pascals. […] (SRM) chromatograms of triolein (Q1: 902.9>Q3:602.3) and internal standard (Q1: 902.9>Q3:602.3) were collected for 40 sec. The peak area was integrated by Xcalibur Quan software. The ratio between the triolein generated in the reaction and spiked in internal standard were used to generate percentage inhibition and IC50 values. Compound percentage inhibition was calculated by the following formula: Inhibition %=1−[(compound response−low control)/(high control−low control)]×100%. Potent compounds were titrated and IC50 were calculated by 4 parameter sigmoidal curve fitting formula.
DGAT2 Enzymatic Activity Assay
DGAT2 activity was determined by measuring the amount of enzymatic product triolein (1,2,3-Tri(cis-9-octadecenoyl)glycerol) using the membrane prep mentioned above. The assay was carried out in deep well 384 plates in a final volume of 40 μL at room temperature. The assay mixture contained the following: assay buffer (100 mM Tris·Cl, pH 7.0, 20 mM MgCl2, 5% ethanol), 25 μM of diolein, 10 μM of oleoyl-CoA and 10 ng/μL of DGAT2 membrane.

Chain of hDGAT2 (Q96PD7 whole entry): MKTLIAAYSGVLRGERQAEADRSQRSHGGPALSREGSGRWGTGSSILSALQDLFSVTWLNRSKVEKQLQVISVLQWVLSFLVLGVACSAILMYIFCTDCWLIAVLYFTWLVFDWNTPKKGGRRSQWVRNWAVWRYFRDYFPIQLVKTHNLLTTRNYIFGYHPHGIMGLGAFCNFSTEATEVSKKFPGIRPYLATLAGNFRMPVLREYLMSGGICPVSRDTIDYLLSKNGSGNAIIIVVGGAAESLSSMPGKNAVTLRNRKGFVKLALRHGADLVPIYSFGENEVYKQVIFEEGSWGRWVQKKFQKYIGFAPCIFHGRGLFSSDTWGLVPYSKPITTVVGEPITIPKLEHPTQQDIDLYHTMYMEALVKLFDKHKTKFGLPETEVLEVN

## CC(C)(C)NC(=O)N1CCc2c(-c3cccc(C(F)(F)F)c3)ccc(C(=O)NCCN3CCCc4ccccc43)c2C1 [Example 43, N^2-(tert-butyl)-N^8-(2-(3,4-dihydroquinolin-1(2H)-yl)ethyl)-5-(3-(trifluoromethyl)phenyl)-3,4-dihydroisoquinoline-2,8(1H)-dicarboxamide]
  IC50: 1.14 µM

## CC(CNC(=O)c1ccc(-c2cccc(C(F)(F)F)c2)c2c1CN(C(=O)NC(C)(C)C)CC2)n1cccn1 (stereo not shown) [Example 44, N^8-(2-(1H-pyrazol-1-yl)propyl)-N^2-(tert-butyl)-5-(3-(trifluoromethyl)phenyl)-3,4-dihydroisoquinoline-2,8(1H)-dicarboxamide]
  IC50: 1.2 µM

## CC(CNC(=O)c1ccc(-c2cccc(C(F)(F)F)c2)c2c1CN(C(=O)NC(C)(C)C)CC2)c1ncco1 (stereo not shown) [Example 45, N^2-(tert-butyl)-N^8-(2-(oxazol-2-yl)propyl)-5-(3-(trifluoromethyl)phenyl)-3,4-dihydroisoquinoline-2,8(1H)-dicarboxamide]
  IC50: 1.28 µM

## CC(CNC(=O)c1ccc(-c2cccc(C(F)(F)F)c2)c2c1CN(C(=O)NC(C)(C)C)CC2)c1ccno1 (stereo not shown) [Example 46, N^2-(tert-butyl)-N^8-(2-(isoxazol-5-yl)propyl)-5-(3-(trifluoromethyl)phenyl)-3,4-dihydroisoquinoline-2,8(1H)-dicarboxamide]
  IC50: 1.3 µM

## Cc1nnc(CCNC(=O)c2ccc(-c3cccc(C(F)(F)F)c3)c3c2CN(C(=O)NC(C)(C)C)CC3)[nH]1 [Example 47, N^2-(tert-butyl)-N^8-(2-(5-methyl-4H-1,2,4-triazol-3-yl)ethyl)-5-(3-(trifluoromethyl)phenyl)-3,4-dihydroisoquinoline-2,8(1H)-dicarboxamide]
  IC50: 1.2 µM

## CC(C)(C)NC(=O)N1CCc2c(-c3cccc(C(F)(F)F)c3)ccc(C(=O)NCCn3cncn3)c2C1 [Example 48, N^8-(2-(1H-1,2,4-triazol-1-yl)ethyl)-N^2-(tert-butyl)-5-(3-(trifluoromethyl)phenyl)-3,4-dihydroisoquinoline-2,8(1H)-dicarboxamide]
  IC50: 1.41 µM

## CC(C)(C)NC(=O)N1CCc2c(-c3cccc(C(F)(F)F)c3)ccc(C(=O)NCCc3cn4cccnc4n3)c2C1 [Example 49, N^2-(tert-butyl)-N^8-(2-(imidazo[1,2-a]pyrimidin-2-yl)ethyl)-5-(3-(trifluoromethyl)phenyl)-3,4-dihydroisoquinoline-2,8(1H)-dicarboxamide]
  IC50: 1.57 µM

## Cc1noc(C)c1CCNC(=O)c1ccc(-c2cccc(C(F)(F)F)c2)c2c1CN(C(=O)NC(C)(C)C)CC2 [Example 50, N^2-(tert-butyl)-N^8-(2-(3,5-dimethylisoxazol-4-yl)ethyl)-5-(3-(trifluoromethyl)phenyl)-3,4-dihydroisoquinoline-2,8(1H)-dicarboxamide]
  IC50: 1.97 µM

## CC(C)(C)NC(=O)N1CCc2c(-c3cccc(C(F)(F)F)c3)ccc(C(=O)NCc3nnc4n3CCC4)c2C1 [Example 51, N^2-(tert-butyl)-N^8-((6,7-dihydro-5H-pyrrolo[2,1-c][1,2,4]triazol-3-yl)methyl)-5-(3-(trifluoromethyl)phenyl)-3,4-dihydroisoquinoline-2,8(1H)-dicarboxamide]
  IC50: 2.03 µM

## CC(C)(C)NC(=O)N1CCc2c(-c3cccc(C(F)(F)F)c3)ccc(C(=O)NCCc3ccc(C(F)(F)F)cc3)c2C1 [Example 52, N^2-(tert-butyl)-N^8-(4-(trifluoromethyl)phenethyl)-5-(3-(trifluoromethyl)phenyl)-3,4-dihydroisoquinoline-2,8(1H)-dicarboxamide]
  IC50: 2.42 µM

## CC(C)(C)NC(=O)N1CCc2c(-c3cccc(C(F)(F)F)c3)ccc(C(=O)Nc3nonc3-c3nc4ccccc4[nH]3)c2C1 [Example 53, N^8-(4-(1H-benzo[d]imidazol-2-yl)-1,2,5-oxadiazol-3-yl)-N^2-(tert-butyl)-5-(3-(trifluoromethyl)phenyl)-3,4-dihydroisoquinoline-2,8(1H)-dicarboxamide]
  IC50: 3.34 µM

## CC(C)(C)NC(=O)N1CCc2c(-c3cccc(C(F)(F)F)c3)ccc(C(=O)NCCc3cnc4ccccn34)c2C1 [Example 54, N^2-(tert-butyl)-N^8-(2-(imidazo[1,2-a]pyridin-3-yl)ethyl)-5-(3-(trifluoromethyl)phenyl)-3,4-dihydroisoquinoline-2,8(1H)-dicarboxamide]
  IC50: 3.72 µM

## CC(C)(C)NC(=O)N1CCc2c(-c3cccc(OC(F)(F)F)c3)ccc(C(=O)NCc3cn4cccnc4n3)c2C1 [Example 55, N^2-(tert-butyl)-N^8-(imidazo[1,2-a]pyrimidin-2-ylmethyl)-5-(3-(trifluoromethoxy)phenyl)-3,4-dihydroisoquinoline-2,8(1H)-dicarboxamide]
  IC50: 2.15 µM

## Cc1nccn1CCNC(=O)c1ccc(-c2cccc(C(F)(F)F)c2)c2c1CN(C(=O)NC(C)(C)C)CC2 [Example 56, N^2-(tert-butyl)-N^8-(2-(2-methyl-1H-imidazol-1-yl)ethyl)-5-(3-(trifluoromethyl)phenyl)-3,4-dihydroisoquinoline-2,8(1H)-dicarboxamide]
  IC50: 7.95 µM

## CC(C)(C)NC(=O)N1CCc2c(-c3cccc(OC(F)(F)F)c3)ccc(C(=O)N3CCCCC3c3ccccc3)c2C1 (stereo not shown) [Example 57, N-(tert-butyl)-8-(2-phenylpiperidine-1-carbonyl)-5-(3-(trifluoromethoxy)phenyl)-3,4-dihydroisoquinoline-2(1H)-carboxamide]
  IC50: 8.76 µM

## CC(C)(C)NC(=O)N1CCc2c(-c3cccc(C(F)(F)F)c3)ccc(C(=O)NCCc3nc4ccc(Cl)cc4[nH]3)c2C1 [Example 58, N^2-(tert-butyl)-N^8-(2-(6-chloro-1H-benzo[d]imidazol-2-yl)ethyl)-5-(3-(trifluoromethyl)phenyl)-3,4-dihydroisoquinoline-2,8(1H)-dicarboxamide]
  IC50: 0.0167 µM

## COc1ccc2nc(CCNC(=O)c3ccc(-c4cccc(C(F)(F)F)c4)c4c3CN(C(=O)NCC(F)(F)F)CC4)[nH]c2c1 [Example 59, N^8-(2-(6-methoxy-1H-benzo[d]imidazol-2-yl)ethyl)-N^2-(2,2,2-trifluoroethyl)-5-(3-(trifluoromethyl)phenyl)-3,4-dihydroisoquinoline-2,8(1H)-dicarboxamide]
  IC50: 0.0829 µM

## Cc1nnc(CCNC(=O)c2ccc(-c3cccc(C(F)(F)F)c3)c3c2CN(C(=O)NC(C)(C)C)CC3)[nH]1 [Example 60, N^2-(tert-butyl)-N^8-(2-(5-methyl-4H-1,2,4-triazol-3-yl)ethyl)-5-(3-(trifluoromethyl)phenyl)-3,4-dihydroisoquinoline-2,8(1H)-dicarboxamide]
  IC50: 1.35 µM

## CC(NC(=O)c1ccc(-c2cccc(C(F)(F)F)c2)c2c1CN(C(=O)NC(C)(C)C)CC2)c1nnc[nH]1 (stereo not shown) [Example 62, N^8-(1-(4H-1,2,4-triazol-3-yl)ethyl)-N^2-(tert-butyl)-5-(3-(trifluoromethyl)phenyl)-3,4-dihydroisoquinoline-2,8(1H)-dicarboxamide]
  IC50: 3.84 µM

## CC(C)(C)NC(=O)N1CCc2c(-c3cccc(C(F)(F)F)c3)ccc(C(=O)NC3(c4ccccn4)CC3)c2C1 [Example 63, N^2-(tert-butyl)-N^8-(1-(pyridin-2-yl)cyclopropyl)-5-(3-(trifluoromethyl)phenyl)-3,4-dihydroisoquinoline-2,8(1H)-dicarboxamide]
  IC50: 2.06 µM

## CC(NC(=O)c1ccc(-c2cccc(C(F)(F)F)c2)c2c1CN(C(=O)NC(C)(C)C)CC2)c1cn2ncsc2n1 (stereo not shown) [Example 64, N^2-(tert-butyl)-N^8-(1-(imidazo[2,1-b][1,3,4]thiadiazol-6-yl)ethyl)-5-(3-(trifluoromethyl)phenyl)-3,4-dihydroisoquinoline-2,8(1H)-dicarboxamide]
  IC50: 0.39 µM

## CC(C)(C)NC(=O)N1CCc2c(-c3cccc(C(F)(F)F)c3)ccc(C(=O)NCc3cnc4ccccn34)c2C1 [Example 66, N^2-(tert-butyl)-N^8-(imidazo[1,2-a]pyridin-3-ylmethyl)-5-(3-(trifluoromethyl)phenyl)-3,4-dihydroisoquinoline-2,8(1H)-dicarboxamide]
  IC50: 0.0534 µM
